Like-named read-outs stand apart in the source and are kept apart here.
Tests used:
CBM32-5 [1] = target: T1, CBM32-5 (Clostridium perfringens, UniProt A0A0H2YU91); conditions: 20 mM Tris-HCl pH 8.0; 20 °C (table; methods say 25 °C)
T1 construct: gene CPF_0859

CBM32-5 [2] = target: T1, CBM32-5; conditions: glycan immobilised on array; labelled protein
CBM32-5 [3] = target: T1, CBM32-5; conditions: 20 mM Tris-HCl pH 8.0; 20 °C (table; methods say 25 °C); n fixed at 1
CBM32-3 = target: T2, CBM32-3 (Clostridium perfringens, UniProt A0A0H2YU91); conditions: 50 mM HEPES pH 7.5, 25 °C; one-site fit, n fixed at 1
T2 construct: gene CPF_0859

CBM32-4 = target: T3, CBM32-4 (Clostridium perfringens, UniProt A0A0H2YU91); conditions: 50 mM HEPES pH 7.5, 25 °C; one-site fit, n fixed at 1
T3 construct: gene CPF_0859

CBM32-5 [4] = target: T1, CBM32-5; conditions: co-crystallised with 10 mM ligand, pH 5.6

For `CC(=O)N[C@H]1C(O)O[C@H](CO)[C@H](O)[C@@H]1O` (stereo partly drawn) [D-GalNAc], the “Ka (M^-1)” value (CBM32-5 [1]) was 5.01 (±0.64)×10^3.
With `OC[C@H]1OC(O)[C@H](O)[C@@H](O)[C@H]1O` (stereo partly drawn) [D-galactose] the “Ka (M^-1)” value (CBM32-5 [1]) was 1.69 (±0.05)×10^3.
In the case of `CC(=O)N[C@H]1C(O)O[C@H](CO)[C@H](O)[C@@H]1O[C@@H]1O[C@H](CO)[C@H](O)[C@H](O)[C@H]1O` (stereo partly drawn) [Gal-β-1,3-GalNAc], the “Ka (M^-1)” value (CBM32-5 [1]) is reported as 3.77 (±0.34)×10^3.
`CC(=O)N[C@H]1[C@@H](O[C@@H]2[C@H](O)[C@@H](O[C@@H]3O[C@@H](C)[C@@H](O)[C@@H](O)[C@@H]3O)[C@H](O[C@H]3[C@H](O)[C@@H](NC(C)=O)C(O)O[C@@H]3CO)O[C@@H]2CO)O[C@H](CO)[C@H](O)[C@@H]1O` (stereo partly drawn) [GalNAc-α-1,4(Fuc-α-1,2)-Gal-β-1,4-GlcNAc] was tested, and the glycan microarray (CBM32-5 [2]) was “this synthetic carbohydrate was clearly the top ligand from the array analysis”.
For `CC(=O)N[C@H]1[C@H](O[C@H]2[C@@H](O)[C@@H](CO)OC(O)[C@@H]2O)O[C@H](CO)[C@H](O)[C@@H]1O` (stereo partly drawn) [GalNAc-β-1,3-Gal], the “Ka (M^-1)” value (CBM32-5 [3]) was 3.40 (±0.10)×10^3.
In the case of `CC(=O)N[C@H]1[C@@H](O[C@@H]2[C@H](O)[C@@H](O)C(O)O[C@@H]2CO)O[C@H](CO)[C@@H](O)[C@@H]1O` (stereo partly drawn) [GlcNAc-α-1,4-Gal], the association constant (CBM32-3) is reported as 2.64 (±0.64)×10^4 and the association constant (CBM32-4) is reported as 1.38 (±0.08)×10^4.
For `OC[C@H]1O[C@@H](O[C@H]2[C@H](O)[C@@H](O)C(O)O[C@@H]2CO)[C@H](O)[C@@H](O)[C@H]1O` (stereo partly drawn) [Lactose], the “Ka (M^-1)” value (CBM32-5 [1]) was 2.40 (±0.58)×10^3.
With `CC(=O)N[C@H]1[C@@H](OC[C@H](N)C(=O)O)O[C@H](CO)[C@H](O)[C@@H]1O` [Tn antigen, N-acetyl-α-D-galactosaminyl-1-O-serine] the “X-ray crystal structure of complex, 1.70 Å” value (CBM32-5 [4]) was 4a44 for CBM32-5 in complex with the Tn Antigen.

From article PMC3313936 (PLoS ONE, 2012)
